Laboratory results taken from US10550100B2, “5-[3-[piperzin-1-yl]-3-oxo-propyl]-imidazolidine-2,4-dione derivatives as ADAMTS 4 and 5 inhibitors for treating E.G. osteoarthritis” (GALAPAGOS NV, priority 2016, dated 2020).
Where two headings read alike, the source gives them in different places.

Legend:
Format in all cases: biochemical
rnADAMTS-5 (1-564-6H) = rnADAMTS-5 (1-564-6H) (Rattus norvegicus (Rat), UniProt Q6TY19); test: Rat ADAMTS-5 TBIS-1 substrate cleavage assay; settings: rnADAMTS-5, TBIS-1 substrate, 120 min at 37° C.; read-out: Rat ADAMTS-5 potency IC50
rnADAMTS-5 (1-564-6H), sequence (Q6TY19 entry or part of it): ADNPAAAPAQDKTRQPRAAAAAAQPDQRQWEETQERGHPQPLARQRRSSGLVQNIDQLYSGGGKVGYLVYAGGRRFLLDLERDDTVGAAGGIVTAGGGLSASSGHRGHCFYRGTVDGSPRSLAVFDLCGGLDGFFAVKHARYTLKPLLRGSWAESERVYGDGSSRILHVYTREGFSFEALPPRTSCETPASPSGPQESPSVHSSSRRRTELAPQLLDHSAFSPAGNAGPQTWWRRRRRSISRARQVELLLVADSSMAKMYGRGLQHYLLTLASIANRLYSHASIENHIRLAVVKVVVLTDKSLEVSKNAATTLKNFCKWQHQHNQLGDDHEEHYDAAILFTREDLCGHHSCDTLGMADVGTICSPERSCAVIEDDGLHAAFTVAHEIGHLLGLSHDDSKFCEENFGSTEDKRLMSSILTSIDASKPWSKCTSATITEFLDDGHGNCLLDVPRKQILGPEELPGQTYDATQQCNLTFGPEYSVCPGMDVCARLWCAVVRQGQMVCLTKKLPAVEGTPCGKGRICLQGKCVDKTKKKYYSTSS
Method: The basis for the assay is the cleavage of the substrate TBIS-1 (5 FAM-[…] (5TAMRA)K-NH2) (SEQ ID NO: 2) by rnADAMTS-5 (1-564-6H).
(§1) The reaction is initiated by adding to the assay plate TBIS-1 (10 μL, 4.5 μM, Anaspec) in the same buffer.
Finally, the fluorescence is read on the Envision (Perkin Elmer) after an incubation of 120 min at 37° C. (Excitation 485 nm, emission 535).

human ADAMTS-5 = human ADAMTS-5 (Homo sapiens (Human), UniProt Q9UNA0); test: hADAMTS-5 TBIS-1 cleavage assay, Protocol 3; settings: Protocol 3, TBIS-1 substrate, 90 min at 37° C.; read-out: hADAMTS-5 potency IC50
human ADAMTS-5, sequence (Q9UNA0 262-930): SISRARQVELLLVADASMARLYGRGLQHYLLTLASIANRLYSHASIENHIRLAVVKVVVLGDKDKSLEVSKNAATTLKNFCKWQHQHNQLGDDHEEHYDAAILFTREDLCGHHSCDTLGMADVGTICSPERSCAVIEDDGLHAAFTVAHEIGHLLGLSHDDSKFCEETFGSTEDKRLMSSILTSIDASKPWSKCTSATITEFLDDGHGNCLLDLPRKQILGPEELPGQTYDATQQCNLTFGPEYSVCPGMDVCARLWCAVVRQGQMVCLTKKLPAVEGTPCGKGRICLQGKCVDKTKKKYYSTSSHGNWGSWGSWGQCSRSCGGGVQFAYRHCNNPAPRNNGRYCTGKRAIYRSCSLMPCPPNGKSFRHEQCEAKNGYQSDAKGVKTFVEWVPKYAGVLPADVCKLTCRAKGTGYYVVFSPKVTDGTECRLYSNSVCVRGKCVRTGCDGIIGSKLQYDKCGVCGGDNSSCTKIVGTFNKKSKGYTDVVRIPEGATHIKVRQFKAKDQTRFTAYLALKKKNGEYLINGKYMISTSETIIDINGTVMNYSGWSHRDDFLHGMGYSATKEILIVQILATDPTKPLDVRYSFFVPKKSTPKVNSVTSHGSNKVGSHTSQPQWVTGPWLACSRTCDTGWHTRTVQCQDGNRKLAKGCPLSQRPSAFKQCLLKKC
Method: as §1
Finally, the fluorescence is read on the Envision (Perkin Elmer) after an incubation of 90 min at 37° C. (Excitation 485 nm, emission 530).

human ADAMTS6 = human ADAMTS6 (Homo sapiens (Human), UniProt Q9UKP5); test: hADAMTS-6 520 MMP FRET substrate XII cleavage assay; settings: 37° C. for 2 h, read-out: hADAMTS-6 potency IC50
human ADAMTS6, sequence (Q9UKP5 other isoform, or with tags, fused parts or gaps): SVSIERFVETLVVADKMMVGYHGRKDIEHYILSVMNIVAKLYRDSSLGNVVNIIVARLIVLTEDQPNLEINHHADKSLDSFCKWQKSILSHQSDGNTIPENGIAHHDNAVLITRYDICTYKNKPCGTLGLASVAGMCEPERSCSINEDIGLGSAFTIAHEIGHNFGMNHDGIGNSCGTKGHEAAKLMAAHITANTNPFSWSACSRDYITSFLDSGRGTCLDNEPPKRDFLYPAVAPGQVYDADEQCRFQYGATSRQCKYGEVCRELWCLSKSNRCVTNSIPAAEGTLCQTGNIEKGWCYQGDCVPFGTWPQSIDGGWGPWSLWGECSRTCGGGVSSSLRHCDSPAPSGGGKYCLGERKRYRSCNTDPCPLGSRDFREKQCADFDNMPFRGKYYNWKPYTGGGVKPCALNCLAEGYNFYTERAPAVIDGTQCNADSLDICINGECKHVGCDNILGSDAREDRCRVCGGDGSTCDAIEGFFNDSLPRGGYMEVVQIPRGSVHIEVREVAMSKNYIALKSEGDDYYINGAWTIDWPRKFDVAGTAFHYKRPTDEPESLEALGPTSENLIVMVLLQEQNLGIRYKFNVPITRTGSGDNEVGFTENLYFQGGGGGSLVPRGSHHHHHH
In short: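 FRET cleavage of 520 MMP Substrate XII (Arg-Pro-Lys-Pro-Tyr-Ala-Nva-Trp-Met-Lys) by 0.73 nM enzyme in 25 mM Tris pH8.0, 0.05% CHAPS, 2.5 mM CaCl2. Compound dilution series from 20 μM top, 1/5 steps; substrate added from 1 μM stock, 2 h at 37° C. Fluorescence read at exc485/em530 for IC50.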

human TACE = human TACE (Homo sapiens (Human), UniProt P78536); test: hTACE 5FAM-[…]-5TAMRA cleavage assay; settings: 75 min at room temperature, read-out: hTACE potency IC50
human TACE, sequence (P78536 215-671): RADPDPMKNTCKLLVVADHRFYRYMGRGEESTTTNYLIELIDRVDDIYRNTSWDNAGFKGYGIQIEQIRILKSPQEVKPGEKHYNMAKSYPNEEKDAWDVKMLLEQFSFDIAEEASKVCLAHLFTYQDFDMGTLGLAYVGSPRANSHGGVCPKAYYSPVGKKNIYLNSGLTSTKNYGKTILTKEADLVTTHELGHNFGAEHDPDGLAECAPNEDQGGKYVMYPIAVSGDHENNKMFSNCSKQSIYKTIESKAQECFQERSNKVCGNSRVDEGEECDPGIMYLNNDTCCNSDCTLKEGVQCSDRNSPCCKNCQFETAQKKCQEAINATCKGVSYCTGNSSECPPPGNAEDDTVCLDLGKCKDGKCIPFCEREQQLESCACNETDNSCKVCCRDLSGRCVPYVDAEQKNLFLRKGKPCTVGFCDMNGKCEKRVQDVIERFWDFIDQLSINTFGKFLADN
Method: Finally, the fluorescence is read on the Envision (Perkin Elmer) after an incubation of 75 min at room temperature (Excitation 485 nm, Emission 530).

human MMP13 [1] = target: T1, human MMP13 (Homo sapiens (Human), UniProt P45452); test: hMMP13 390 MMP FRET Substrate I cleavage assay, Protocol 1; settings: Protocol 1, 390 MMP FRET Substrate I; read-out: hMMP-13 potency IC50
Method: (§2) The basis for the assay is the cleavage of the substrate 390 MMP FRET Substrate I (Anaspec Cat# AS-27076) by human MMP13 (Chemicon, Cat#CC068).
(§3) Human MMP13 is preactivated by incubated the enzyme in the same buffer complemented with 1 mM freshly prepared p-Aminophenylmercuric acetate (AMPA) for 1 h at 37° C.
(§4) The reaction is initiated by adding to the assay plate 390 MMP FRET Substrate I (10 μL, 2.5 μM) in the same buffer.
(§5) Finally, the fluorescence is read on the Envision (Perkin Elmer) after an incubation of 45 min at room temperature (Excitation 485 nm, Emission 530).

human MMP13 [2] = target: T1, human MMP13; test: hMMP13 390 MMP FRET Substrate I cleavage assay, Protocol 2; settings: Protocol 2, 390 MMP FRET Substrate I; read-out: hMMP-13 potency IC50
Method: as §2, §3, §4, §5

human MMP14 = human MMP14 (Homo sapiens (Human), UniProt P50281); test: hMMP14 390 MMP FRET Substrate I cleavage assay; settings: 60 min at room temperature, read-out: hMMP-14 potency IC50
Method: The basis for the assay is the cleavage of the substrate 390 MMP FRET Substrate I (Anaspec Cat# AS-27076) by human MMP14 (Biomol, Cat#SE-259).
as §4
Finally, the fluorescence is read on the Envision (Perkin Elmer) after an incubation of 60 min at room temperature (Excitation 485 nm, Emission 530).

| IC50 (rnADAMTS-5 (1-564-6H)) [nM] | IC50 (human ADAMTS-5) [nM] | IC50 (human ADAMTS6) [nM] | IC50 (human TACE; 5FAM-LAQAVRSSSRK-5TAMRA) [nM] | IC50 (human MMP13 [1]) [nM] | IC50 (human TACE; 5FAM-[…]-5TAMRA) [nM] | IC50 (human MMP13 [2]) [nM] | IC50 (human MMP14) [nM] | SMILES |
| --- | --- | --- | --- | --- | --- | --- | --- | --- |
| 0.001 to 25 | 25 to 50 | 50 to 100 | > 100 | > 100 |  |  |  | C[C@@H](C[C@@]1(C)NC(=O)NC1=O)C(=O)N1CCC(c2cccc(F)c2)CC1 (stereo in doubt) [Cpd 28, 5-(3-(4-(3-fluorophenyl)piperidin-1-yl)-2-methyl-3-oxopropyl)-5-methyl-imidazolidine-2,4-dione] |
| 50 to 100 | 25 to 50 | > 100 | > 100 | > 100 |  |  |  | O=C1NC(=O)C(CCC(=O)N2CCC(c3cccc(Cl)c3)CC2)(C2CC2)N1 (stereo not shown) [Cpd 18, 5-(3-(4-(3-chlorophenyl)piperidin-1-yl)-3-oxopropyl)-5-cyclopropyl-imidazolidine-2,4-dione] |
|  | > 100 | 0.001 to 25 | > 100 |  |  | > 100 | > 100 | COc1cc(Cl)ccc1C1CCN(C(=O)CC[C@@]2(C)NC(=O)NC2=O)CC1 [Cpd 79, (5R)-5-[3-[4-(4-chloro-2-methoxy-phenyl)-1-piperidyl]-3-oxo-propyl]-5-methyl-imidazolidine-2,4-dione] |
|  | 25 to 50 | 0.001 to 25 |  |  | 50 to 100 | > 100 | > 100 | COc1cc(C2CCN(C(=O)[C@@H](C)C[C@@]3(C)NC(=O)NC3=O)CC2)cc(C)c1Cl (stereo in doubt) [Cpd 113, 5-[3-[4-(4-chloro-3-methoxy-5-methyl-phenyl)-1-piperidyl]-2-methyl-3-oxo-propyl]-5-methyl-imidazolidine-2,4-dione] |

More lines, now with the values behind:

| SMILES | IC50 (rnADAMTS-5 (1-564-6H)) [nM] | IC50 (human ADAMTS-5) [nM] | IC50 (human ADAMTS6) [nM] | IC50 (human TACE; 5FAM-LAQAVRSSSRK-5TAMRA) [nM] | IC50 (human MMP13 [1]) [nM] | IC50 (human TACE; 5FAM-[…]-5TAMRA) [nM] | IC50 (human MMP13 [2]) [nM] | IC50 (human MMP14) [nM] |
| --- | --- | --- | --- | --- | --- | --- | --- | --- |
| Cc1cccc(C2CCN(C(=O)[C@@H](C)C[C@@]3(C)NC(=O)NC3=O)CC2)c1 (stereo in doubt) [Cpd 27, 5-methyl-5-(2-methyl-3-oxo-3-(4-m-tolylpiperidin-yl)propyl) imidazolidine-2,4-dione] | 25 to 50 | 25 to 50 | 25 to 50 |  | > 100 | 50 to 100 |  |  |
| COc1cc(C2CCN(C(=O)CC[C@H]3NC(=O)NC3=O)CC2)cc(OC)c1Cl [Cpd 21, (R)-5-(3-(4-(4-chloro-3,5-dimethoxy-phenyl)piperidin-1-yl)-3-oxopropyl) imidazolidine-2,4-dione] | > 100 | > 100 | 0.001 to 25 | > 100 | > 100 |  |  |  |
| O=C1NC(=O)C(CCC(=O)N2CCC(c3cc(Cl)cc(Cl)c3)CC2)(C2CC2)N1 (stereo not shown) [Cpd 17, 5-cyclopropyl-5-(3-(4-(3,5-dichlorophenyl)piperidin-1-yl)-3-oxopropyl) imidazolidine-2,4-dione] | 50 to 100 | 50 to 100 | 50 to 100 | > 100 | > 100 |  |  |  |
| C[C@@H](C[C@@]1(C2CC2)NC(=O)NC1=O)C(=O)N1CCC(c2ccccc2)CC1 [Cpd 20] | 50 to 100 | 50 to 100 | > 100 | > 100 | > 100 |  |  |  |
| C[C@@H](C[C@@]1(C)NC(=O)NC1=O)C(=O)N1CCC(c2ccc(Cl)cc2)CC1 (stereo in doubt) [Cpd 24, 5-(3-(4-(4-chlorophenyl)piperidin-1-yl)-2-methyl-3-oxopropyl)-5-methyl imidazolidine-2,4-dione] | 50 to 100 | 50 to 100 | 0.001 to 25 | > 100 | > 100 |  |  |  |
| C[C@@H](C[C@@]1(C)NC(=O)NC1=O)C(=O)N1CCC(c2ccccc2)CC1 [Cpd 23, (R)-5-methyl-5-((S)-2-methyl-3-oxo-3-(4-phenylpiperidin-1-yl)propyl) imidazolidine-2,4-dione] | 50 to 100 | 50 to 100 | 50 to 100 | > 100 | > 100 |  |  |  |
| O=C1NC(=O)C(CCC(=O)N2CCC(c3cccc(F)c3)CC2)(C2CC2)N1 (stereo not shown) [Cpd 19, 5-cyclopropyl-5-(3-(4-(3-fluorophenyl)piperidin-1-yl)-3-oxopropyl) imidazolidine-2,4-dione] | 25 to 50 | 25 to 50 | > 100 | > 100 | > 100 |  |  |  |
